Test results: paper PMC6877102, “A squalamine derivative, NV669, as a novel PTP1B inhibitor: in vitro and in vivo effects on pancreatic and hepatic tumor growth” (Oncotarget, 2019)

Biological target: T1, Protein Tyrosine Phosphatase 1B (PTP1B) (Homo sapiens, UniProt P18031)
T1 construct: gene PTPN1; residues 1-322, C-terminal deletion
T1 sequence (P18031 1-322): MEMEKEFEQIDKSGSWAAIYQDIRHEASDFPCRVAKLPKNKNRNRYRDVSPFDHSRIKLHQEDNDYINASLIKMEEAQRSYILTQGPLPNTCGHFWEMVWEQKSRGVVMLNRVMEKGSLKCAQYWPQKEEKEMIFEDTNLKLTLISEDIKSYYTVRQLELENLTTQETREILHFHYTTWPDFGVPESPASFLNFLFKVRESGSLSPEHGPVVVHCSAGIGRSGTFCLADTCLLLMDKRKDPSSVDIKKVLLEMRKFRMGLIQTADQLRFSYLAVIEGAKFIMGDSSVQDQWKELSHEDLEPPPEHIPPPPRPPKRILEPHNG
Test: Malachite green phosphate release assay with IR5 phosphopeptide on recombinant human PTP1B
Format: biochemical

Row | SMILES | Malachite green phosphate release assay with IR5 phosphopeptide on recombinant h
1 | CC(C)CCC[C@@H](C)[C@H]1CC[C@H]2[C@@H]3C[C@@H](NCCCNCCCCNCCCN)[C@H]4C[C@@H](O)CC[C@]4(C)[C@H]3CC[C@]12C [claramine] | Like claramine (a PTP1B inhibitor used here as positive control), we found that NV669 blocked significantly in vitro PTP1B activity
2 | CC(C)CCC[C@@H](C)[C@H]1CCC2C3C[C@@H](O)C4=C[C@@H](NCCCNCCCCNCCCN)CC[C@]4(C)C3CC[C@@]21C (some centres unmarked) [NV669] | we found that NV669 blocked significantly in vitro PTP1B activity in a dose- and time-dependent manner
